{
  "source": "patent US20250332212A1",
  "about": "“METHOD FOR TREATING OR PREVENTING ALOPECIA” (Suzhou Mingren Pharmaceutical Biotechnology Co., Ltd., priority 2024, published 2025)",
  "key": {"[1]": {"tested_on": "integrin β1", "experiment": "Integrin β1 expression in skin tissue (qPCR, immunoblotting, immunofluorescence)", "assay_type": "in vivo, mouse", "description": "In this example, the mRNA expression levels of RGD-targeting molecules in the skin tissues of three groups of mice, namely, the AGA model control group, the model group and the JP1-treated group, were further examined.\nTo verify whether JP1 targeted integrin molecules are localized in hair follicles in the skin tissue, this example detected the expression levels, tissue localization, and distribution of integrin αv and integrin β1 in the skin tissue of the mouse model in Example 6 using immunofluorescence staining.\n(§1) 4.1) Protein extraction: 70 mg of skin tissue was placed in a 1.5 mL centrifuge tube, and 500 μL of tissue lysate RIPA containing protease inhibitor and phosphatase inhibitor was added. The tissue was placed on an ice box, pulverized by a tissue grinder, and then ultrasonically crushed to obtain a tissue suspension, which was then placed in a rotary windmill at 4° C. to be lysed for 2 h. The centrifuge was set at 12,000×g, 4° C., centrifuged for 15 min, and the supernatant was collected as the total protein.\n(§2) 5.1) Heating of protein samples: the total protein content of each tissue was 50 μg; calculate the volume of a corresponding protein sample, make up the volume with saline to 16 μL, then add 4 μL of 5×SDS sampling buffer, heat at 100° C. for 5 min, and then cool at room temperature and store at −20° C.\n(§3) 7.1) Dilute the specific gene amplification primers to 10 µM in ddH2O, prepare the qPCR reaction system according to the instructions in the kit and add them sequentially into a 384-well plate.\n(§4) 7.3) Relative mRNA expression levels of genes were calculated by the […] relative quantification method using GAPDH as an internal reference.\n(§5) 9.5) Primary antibody incubation: the tissue was circled by the histochemical pen, about 50 μL of primary antibody was added dropwise to the tissue, and incubated in a wet box overnight at 4° C., washed 3 times with PBS."}, "[2]": {"tested_on": "SP1", "experiment": "SP1 expression in skin tissue (qPCR, immunoblotting, immunofluorescence)", "assay_type": "in vivo, mouse", "method": "as §1, §2, §3, §4, §5"}, "[3]": {"tested_on": "E2F1", "experiment": "qPCR of E2F1 mRNA in skin tissue", "assay_type": "in vivo, mouse", "settings": "after JP1 intervention, P<0.01", "method": "as §3, §4"}, "[4]": {"tested_on": "Lef1", "experiment": "qPCR of Lef1 mRNA in skin tissue", "assay_type": "in vivo, mouse", "method": "6.1) Sample preparation: 15-20 mg of mouse skin tissue was placed in a 1.5 mL centrifuge tube, and 600 μL of pre-cooled lysate was quickly added, and homogenized with an electric homogenizer. The homogenate obtained was blown gently 10 times, left at room temperature for 3-5 min, then centrifuged at 14,000×g for 5 min, and the supernatant was transferred to a new centrifuge tube with a pipette gun of suitable volume.\nas §3, §4"}, "[5]": {"tested_on": "MYC", "experiment": "qPCR of MYC mRNA in skin tissue", "assay_type": "in vivo, mouse", "settings": "P>0.05", "method": "as §3, §4"}, "[6]": {"tested_on": "TP-induced AGA model mice", "experiment": "TP-induced AGA model, Animal model II (JP1 topical, dose-effect)", "assay_type": "in vivo, C57BL/6J male mice", "settings": "for hair coverage on the 18th day: twice a day", "method": "To prolong the action time of JP1, the design scheme of the animal model in this example adjusted the once-a-day of the first model to twice-a-day administration with an interval of 6 h (FIG. 6A). For details of the experiments, please refer to “Animal model II” of “1. TP-induced AGA model” in “Experimental Methods” below.\nThe mice used in this study were 5-week-old C57BL/6J male mice (18-20 g), which were purchased from Jiangsu Jicui Pharmachem Biotechnology Co. All the animals used in the experiments were housed in the SPF-level environment of the Medical Laboratory Animal Center of Nanjing Medical University, and the relevant animal experimental operations were approved by the Animal Ethics Committee of Nanjing Medical University. The control group was left untreated, and the other groups were injected with TP subcutaneously on their backs every day. Two weeks later, the hair on the backs of the mice was shaved with an electric razor, covering an area of 2 cm×4 cm, and then the residual hair was removed with a hair removal cream. The subcutaneous injections of TP on the shaved backs of the mice in the AGA model was continued until the end of the experimental period, and the administration of TP in each of the treatment groups was begun on the 1st day of the dehairing process.\nIn addition to the normal control group (denoted as control) n=20, all mice injected subcutaneously with TP were randomly divided into the following groups (n=20): the model group (denoted as model), the 0.1% JP1, the 0.5% JP1, the 1% JP1 (all administered by topical dermal application), and the 5% minoxidil group.\nMice were weighed every two days during the experiment. Skin color was assessed against skin score charts. The mice were euthanized and treated at the end of the experiment, and skin tissues were taken from the dorsal decorticated area of the mice. Some of the tissues were fixed with 4% paraformaldehyde solution and then paraffin sections were made for H&E or immunofluorescence staining, etc., and some of the tissues were stored in the refrigerator at −80° C. for relevant molecular expression assays (qRT-PCR, Western Blot, IP, etc.).\n8.1) Sampling and fixation: After the experiment, skin tissue was taken from the depilated area on the back of the mouse and placed in a 10 mL EP tube. 4% paraformaldehyde was added to the EP tube, and all tissues were immersed to denature and coagulate the proteins of the skin tissue. The original morphology and structure of the cells were maintained.\n8.6) H&E staining: the sections pretreated in distilled water were put into aqueous hematoxylin solution for a few minutes for staining. The color was separated in acid water and ammonia for a few seconds each. After rinsing in running water for 1 h, the sections were placed in distilled water for a few moments. The sections were dehydrated in 70% and 90% alcohol for 10 min each, and stained in alcoholic eosin stain for 2-3 min."}, "[7]": {"tested_on": "Wnt signaling pathway", "experiment": "Proteomics and protein phosphorylation sequencing of skin tissue (KEGG, GSEA)", "assay_type": "in vivo, mouse", "method": "Appropriate amounts of mouse skin tissues (n=3) from the model group and 1% JP1 group were added to a mortar pre-cooled with liquid nitrogen, and ground thoroughly with liquid nitrogen into powders. The samples were separately added to lysis buffer and lysed by ultrasonication. The centrifugation was performed at 4° C., 12,000×g for 10 min, and protein concentration was determined by BCA. Trypsin digestion was followed by liquid chromatography-mass spectrometry serial analysis."}, "[8]": {"tested_on": "Wnt1, Wnt3a, Wnt7b", "experiment": "qPCR of the other Wnt molecules in skin tissue", "assay_type": "in vivo, mouse", "settings": "P>0.05", "method": "To illustrate the regulation of JP1 on the upstream Wnt ligand of β-catenin, this example intersected classical signaling pathway-related Wnt ligands and AGA-related Wnt ligands, and screened out the related Wnt ligands, including Wnt1, Wnt3a, Wnt7b, Wnt10a, and Wnt10b. In this example, qPCR was used to detect the mRNA expression of these Wnt molecules in the skin tissue of the mouse model in Example 6.\nas §3, §4"}},
  "note": "Square brackets hold non-standard residues; d marks the D form. Ends that are not written are not given here. pS = N[C@@H](COP(=O)(O)O)C(=O)O",
  "data": [
    {"substance": "FPGSDRF-RGD (FPG[pS]DRFRGD) [JP1, amino acid S is phosphorylated; JWA peptide]", "values": [
      {"measurement": "integrin β1 expression, immunofluorescence staining", "setting": "[1]; each JP1 intervention group, localized in the site of hair follicles", "result": "elevated"},
      {"measurement": "integrin β1 protein level (TP-down-regulated)", "setting": "[1]; skin tissue, immunoblotting, JP1 P<0.01", "result": "reversed"},
      {"measurement": "integrin β1 expression at the end of the model", "setting": "[1]; skin tissue, qPCR, P<0.01", "result": "returned to control levels"},
      {"measurement": "integrin β1 mRNA expression after JP1 intervention", "setting": "[1]; skin tissue, qPCR, decreased in TP model group, P<0.01", "result": "significantly elevated"},
      {"measurement": "SP1 immunofluorescence", "setting": "[2]", "result": "consistent with the protein immunoblotting results"},
      {"measurement": "SP1 protein expression level", "setting": "[2]; immunoblotting", "result": "elevated trend"},
      {"measurement": "SP1 mRNA expression", "setting": "[2]; qPCR", "result": "high expression"},
      {"measurement": "SP1 mRNA expression level, 1% JP1 group vs 0.1% JP1 group", "setting": "[2]; qPCR, P<0.05", "result": "significantly higher than that in the 0.1% JP1 group"},
      {"measurement": "E2F1 mRNA level expression", "setting": "[3]", "result": "elevated"},
      {"measurement": "Lef1 mRNA expression vs model group", "setting": "[4]", "result": "increased"},
      {"measurement": "MYC mRNA level, difference between groups", "setting": "[5]", "result": "not statistically significant"},
      {"measurement": "hair coverage on the 18th day", "setting": "[6]; 0.1% JP1 topical", "result": "lowest"},
      {"measurement": "hair bulb size on day 11 among groups", "setting": "[6]; 1% JP1 group", "result": "largest"},
      {"measurement": "hair coverage on the 18th day", "setting": "[6]; 1% JP1 topical", "result": "highest hair coverage"},
      {"measurement": "hair follicle phase on day 11", "setting": "[6]; H&E longitudinal, model group just entered the anagen phase", "result": "mid-growth phase"},
      {"measurement": "total number of hair follicles vs model group", "setting": "[6]; H&E transverse sections, day 11", "result": "increased significantly and dose-dependently"},
      {"measurement": "effect on growth cycle of hair follicles", "setting": "[6]; JP1 or minoxidil intervention", "result": "accelerate the entry of hair follicles into the anagen phase and shorten the resting phase"},
      {"measurement": "diameter of the hair bulb vs model group", "setting": "[6]; day 11", "result": "significantly larger than that of the model group"},
      {"measurement": "difference between body weights of the groups", "setting": "[6]; during the experiment", "result": "no statistically significant difference"},
      {"measurement": "hair follicle phase on day 32", "setting": "[6]; medium and high dose JP1 group, model group entered the resting phase", "result": "entered the anagen phase again"},
      {"measurement": "dose-effect relationship of AGA hair follicle regeneration", "setting": "[6]; skin-coating 0.1%, 0.5%, 1% JP1", "result": "significant dose-effect relationship"},
      {"measurement": "skin color on the 11th day", "setting": "[6]; topical, model group appeared orange", "result": "changed to gray"},
      {"measurement": "KEGG signaling pathway analysis, differences 1% JP1 vs model group", "setting": "[7]; skin tissue, proteomics", "result": "mainly enriched in the Wnt signaling pathway"},
      {"measurement": "GSEA analysis of Wnt/β-catenin signaling pathway", "setting": "[7]; skin tissues of JP1-treated mice", "result": "enriched"},
      {"measurement": "mRNA levels of the other Wnt molecules among the groups", "setting": "[8]", "result": "not statistically significant"}
    ]}
  ]
}
